Values of other authors as cited in patent US11413265B2, “Formulations and compositions of Cabazitaxel” (Zhuhai Beihai Biotech Co., Ltd., priority 2018, dated 2022).

How the values were obtained:
[1] = tested on: human serum proteins; conditions: in vitro
[2] = target: human serum albumin (Homo sapiens, UniProt P02768); conditions: in vitro
human serum albumin, sequence (P02768 25-609): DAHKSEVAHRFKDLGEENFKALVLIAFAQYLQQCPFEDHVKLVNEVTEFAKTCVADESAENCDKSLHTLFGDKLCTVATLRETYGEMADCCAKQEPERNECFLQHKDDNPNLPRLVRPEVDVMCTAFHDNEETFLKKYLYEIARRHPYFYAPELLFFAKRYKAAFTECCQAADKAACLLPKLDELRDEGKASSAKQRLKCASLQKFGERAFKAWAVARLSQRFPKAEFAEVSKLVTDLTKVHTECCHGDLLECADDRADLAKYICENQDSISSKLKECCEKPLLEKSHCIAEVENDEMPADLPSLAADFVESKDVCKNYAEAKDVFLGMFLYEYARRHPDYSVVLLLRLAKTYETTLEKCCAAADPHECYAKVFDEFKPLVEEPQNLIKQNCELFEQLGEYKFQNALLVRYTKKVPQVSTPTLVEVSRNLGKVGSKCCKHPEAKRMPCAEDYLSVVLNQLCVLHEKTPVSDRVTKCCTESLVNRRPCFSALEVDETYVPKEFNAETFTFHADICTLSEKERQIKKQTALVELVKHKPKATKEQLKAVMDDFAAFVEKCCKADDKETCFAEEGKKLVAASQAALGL

- concentration up to which binding to human serum proteins was not saturable [1]: > 50,000 ng/mL
- bound to human serum albumin [2]: 82%
- solubility in alcohol (alcohol): soluble
- solubility in water (water): practically insoluble
SMILES: CO[C@H]1C(=O)[C@]2(C)[C@@H](OC)C[C@H]3OC[C@@]3(OC(C)=O)[C@H]2[C@H](OC(=O)c2ccccc2)[C@]2(O)C[C@H](OC(=O)[C@H](O)[C@@H](NC(=O)OC(C)(C)C)c3ccccc3)C(C)=C1C2(C)C [Cabazitaxel, cabazitaxel]
